Test results published in patent US11331368B2, “Angiotensin receptor agonists and uses thereof” (Monash University, priority 2017, dated 2022).
Each block holds one molecule with its values, some of them ahead of it. Square brackets hold non-standard residues; d marks the D form. Primed or numbered codes have the meaning given here. Ends that are not written are not given here. * marks the point of attachment. Cholyl = C[C@H](CCC(=O)*)[C@H]1CC[C@H]2[C@@H]3[C@H](O)C[C@@H]4C[C@H](O)CC[C@]4(C)[C@H]3C[C@H](O)[C@]12C; βPhe = beta-form phenylalanine; βArg = beta-form arginine; βTyr = beta-form tyrosine; βPro = beta-form proline; βVal″ = beta-form valine

Assays:
[1] = test system: male FVB/N mice on high salt diet, heart; assay: High salt (5%) diet intervention model, heart; assay type: in vivo, mouse; conditions: for MMP-13 protein expression in heart (Western blot) / macrophage infiltration/expression in heart (F4/80) / expression of P-IκBα (marker for NFκB activation) in heart: weeks 5-8, captopril 3 mg/kg/day; for MMP-13 protein expression in heart (Western blot) / macrophage infiltration/expression in heart (F4/80): peptide 75 pmol/kg/min s.c.; for MMP-13 protein expression in heart (Western blot) / macrophage infiltration/expression in heart (F4/80) / expression of P-IκBα (marker for NFκB activation) in heart / cardiac fibrosis (picrosirius red): Cand 2 mg/kg/day; for expression of P-IκBα (marker for NFκB activation) in heart: peptides 75 pmol/kg/min s.c.; for cardiac fibrosis (picrosirius red): weeks 5-8 of high salt diet, peptides 75 pmol/kg/min s.c. mini-pump, captopril 3 mg/kg/day in drinking water
Method: (§1) C) In the intervention (or reversal) model, male FVB/N mice were treated with selective AT2Rs agonists after the establishment of cardiovascular disease using a high salt diet, in order to reverse cardiovascular pathologies. In some experiments, the ACE inhibitor captopril (dose) or the ARB candesartan cilexetil (dose) were given for 4 weeks in drinking water. Organs examined included heart, kidney and liver and these were compared to either untreated mice or high salt-fed mice that were treated with saline.
A high-salt diet (5% salt) model is a clinically relevant and disease-reversal model which can replicate the high salt intake by humans which is currently a growing problem in the developed countries. High salt intake induces changes in the cardiovascular system and induces remodelling and fibrosis in the heart, kidney and liver.
(§2) Mice were placed on either a normal rodent diet (0.35% NaCl) which acted as control or a high salt diet (5% sodium in food chow) for 8 weeks. After 4 weeks, mice were also treated subcutaneously (via osmotic mini-pump) with either saline or an AT2R agonist (75 pmol/kg/min subcutaneously) for 4 weeks. Mice continued to be fed a high salt diet whilst receiving these treatments.
All mice which underwent surgery were anaesthetized with Isoflurane (Isorrane) (5% induction and 2.5% maintenance) and an incision made in the midscapular region through which osmotic minipumps (Alzet model 2004, Alza Corp) were inserted for subcutaneous drug administration. The incision area was sutured with 6/0 DY silk (Dynek Pty Ltd) and antibiotic powder applied (Cicatrin, Pfizer) followed by intramuscular injection of the analgesic Cartrophen (0.1 ml of a 1.5 mg/ml stock solution; Biopharm Australia). Systolic blood pressure (SBP) was measured using non-invasive tail-cuff plethysmography apparatus (MC4000 Blood Pressure Analysis System, Hatteras Instrument Inc) before drug treatment (week 0), and then fortnightly. At the end of the 8 week treatment period mice were weighed before being killed by overdose of isoflurane inhalation and cervical dislocation.
To measure collagen deposition, frozen sections of heart, kidney or aorta (all 5 μm thickness) were air dried for 10 minutes and were brought through 3 times xylene (2 minutes each), and 3 times absolute alcohol washes before being rinsed in tap H2O for 30 seconds. Staining with an optimal concentration of picrosirius red (in this instance 0.05% picrosirius red diluted in saturated picric acid) was performed and left for an hour. Sections were then rinsed in water and differentiated in 0.01M HCl for 2 minutes, followed by dehydration via 3 times absolute alcohol washes. Then, slides were brought through 3 times xylene washes before being cover slipped according to standard histological techniques using DPX as the mounting medium. Images were taken under ×20 magnification, using bright field (Olympus, BX51) and circularized polarized light microscopy (DM IRB, Leica) while percentage of positive interstitial collagen staining per total field of view was quantified using ImageJ 1.46 software (Java, NIH), and averaged out from a total of eight views as the final percentage collagen content in a particular animal.
Immunostaining was performed on 5 μm thick transverse frozen heart sections. These sections were air dried and fixed in ice-cold acetone for approximately 15 minutes before washing with 0.01M PBS buffer (3×10 minutes). Sections were then incubated with 10% goat serum in 0.01M PBS for 30 minutes to reduce non-specific binding. If the primary antibody is raised in goat, this pre-blocked medium is substituted with 5% BSA in PBS and Triton-X. Next, blocking buffers were removed and the primary antibody to respective markers were applied overnight at room temperature based on the following dilution and origin of the antibodies: α-SMA (1:500, Abcam), Vimentin (1:500, Santa Cruz), P-IκBα (1:200, Cell Signalling), F4/80 macrophage (1:100, Serotec). […]

[2] = test system: male FVB/N mice on high salt diet, liver; assay: High salt (5%) diet intervention model, liver; assay type: in vivo, mouse; conditions: weeks 5-8; peptides 75 pmol/kg/min s.c.; Cand 2 mg/kg/day, captopril 3 mg/kg/day
Method: as §1, §2
Liver sections used either picrosirius red staining or Masson's trichome staining as described above. Higher concentrations of picrosirius red were often used under polarized light microscopy. The liver was removed and sectioned with half of the liver placed in 10% formalin and the rest frozen in liquid nitrogen before being stored in ˜80° C. freezer for future use. Formalin fixed, paraffin embedded livers were sectioned at thickness of 4 μm and were stained with Masson's trichrome according to standard procedures for analysis of liver fibrosis. […] Sections were re-fixed in Bouin's solution for 1 hour at 56° C. to improve staining quality then rinsed in running tap water for 5-10 minutes to remove yellow colour. Following this, sections were stained in Weigert's iron hematoxylin working solution for 10 minutes. Rinsed in running warm tap water for 10 minutes. Washed in distilled water. Stained in Biebrich scarlet-acid fuchsin solution for 10-15 minutes.
Washed in distilled water. Differentiated in phosphomolybdic-phosphotungstic acid solution for 10-15 minutes or until collagen was no longer red. Sections were transferred directly (without rinse) to aniline blue solution and stained for 5-10 minutes. Rinsed briefly in distilled water and differentiated in 1% acetic acid solution for 2-5 minutes. Washed in distilled water. […] Mounted with DPX mounting medium. Quantification of liver fibrosis was performed using images captured with the Aperio scanner (Monash Histology Platform, Monash University), with ×5 magnification. Each liver section had 5 different fields of view photographed at this magnification. Percentage of interstitial and perivascular collagen was analysed and quantified using ImageJ 1.48 software (Java, NIH), and the percentage from 5 random fields of view were averaged for final percentage of collagen for that particular animal. All analysis of collagen expression was conducted in a blinded fashion.

human AT2R = biological target: T1, human AT2R (Homo sapiens, UniProt P50052); assay: Competition radioligand binding (125I-Sar1-Ile8-AngII) in AT2R-transfected HEK-293 cells; conditions: for Fold AT2R selectivity: AT2R over AT1R, Table 3
T1 construct: expressed in transfected cells
T1 sequence (P50052 1-363): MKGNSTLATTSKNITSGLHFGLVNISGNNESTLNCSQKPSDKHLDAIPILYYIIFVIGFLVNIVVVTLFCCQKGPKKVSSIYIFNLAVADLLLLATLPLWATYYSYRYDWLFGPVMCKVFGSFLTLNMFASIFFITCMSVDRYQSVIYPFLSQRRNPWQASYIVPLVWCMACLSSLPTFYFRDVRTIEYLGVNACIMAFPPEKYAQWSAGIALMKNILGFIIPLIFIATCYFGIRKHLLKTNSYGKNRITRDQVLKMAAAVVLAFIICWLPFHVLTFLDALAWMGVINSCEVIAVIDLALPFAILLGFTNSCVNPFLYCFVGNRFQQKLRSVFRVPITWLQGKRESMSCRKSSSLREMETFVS
Method: (§3) This will lead to the generation of IC50 values that determine the relative ability of test compounds to interact with both Angiotensin receptors.
(§4) Cells were grown to approximately 80% confluence before being re-plated into 48 well plates at 1×10^5 cells/well and grown for 48 hours at 37° C. for a whole cell competition binding assay. [125I]-Sar1Ile8Ang II at 50,000 cpm, incubated for 45 minutes at 37° C., in the absence or presence of unlabeled ligands, prepared in binding buffer (DMEM, 0.1% BSA), were used in the competition assays at concentrations ranging from 1 μM to 10 μM. For each experiment, each ligand concentration was tested in duplicate or triplicate, and each experiment was repeated at least 3 separate times. […] The ability of each ligand to inhibit specific binding of [125I]-Sar1Ile8Ang II was measured on a gamma counter with all counts corrected for NSB.

human AT1R = biological target: T2, human AT1R (Homo sapiens, UniProt P30556); assay: Competition radioligand binding (125I-Sar1-Ile8-AngII) in AT1R-transfected HEK-293 cells
T2 construct: expressed in transfected cells
T2 sequence (P30556 1-359): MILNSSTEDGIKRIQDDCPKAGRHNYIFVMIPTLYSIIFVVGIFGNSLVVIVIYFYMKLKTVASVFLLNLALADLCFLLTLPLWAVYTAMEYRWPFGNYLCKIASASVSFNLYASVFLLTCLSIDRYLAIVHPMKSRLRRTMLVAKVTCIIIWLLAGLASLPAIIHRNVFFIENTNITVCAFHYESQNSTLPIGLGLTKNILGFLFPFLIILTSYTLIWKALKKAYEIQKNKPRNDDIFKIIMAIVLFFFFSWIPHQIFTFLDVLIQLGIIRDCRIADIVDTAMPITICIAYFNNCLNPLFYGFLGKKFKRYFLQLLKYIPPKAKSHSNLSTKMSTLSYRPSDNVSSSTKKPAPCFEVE
Method: as §3, §4

[3] = biological target: T3, human Angiotensin II Receptor Type 2 (AT2R) (human, UniProt P50052 1-363); assay: competition radioligand binding on HEK-293 cells with AT2R; competitor [125I]-Sar1Ile8Ang II
T3 construct: whole, on cells; also endogenous on human cardiac fibroblasts (functional entries); also called AT2 receptor
T3 sequence (looked up): T1 sequence (P50052 1-363)
Method: For each experiment, each ligand concentration was tested in duplicate or triplicate, and each experiment was repeated at least 3 separate times.

[4] = PD123319 1 mg/kg/day s.c. with β-Pro7-Ang III or D-Arg2-β-Pro7-Ang III

Molecule: C[C@H](CS)C(=O)N1CCC[C@H]1C(=O)O [captopril, reference compound]
MMP-13 protein expression in heart (Western blot) [1]: Neither captopril nor Cand altered MMP-13 levels | macrophage infiltration/expression in heart (F4/80) [1]: reversed by all agents | expression of P-IκBα (marker for NFκB activation) in heart [1]: reversed only by β-Ile^5-Ang II | cardiac fibrosis (picrosirius red) [1]: also reversed fibrosis | liver fibrosis (picrosirius red, polarized light) [2]: similarly inhibited the pro-fibrotic effects of high salt in the liver | liver steatosis (Oil Red O) [2]: significantly reduced excess lipid accumulation

Molecule: Nicotinamido-Arg-Val-Tyr-Ile-His-β-Pro-Trp [Nic-βPro-Trp-8-Ang III]
Fold AT2R selectivity (human AT2R): >15,000 fold

Molecule: CCOc1nc2cccc(C(=O)OC(C)OC(=O)OC3CCCCC3)c2n1Cc1ccc(-c2ccccc2-c2nnn[nH]2)cc1 (centres unmarked) [candesartan cilexetil, reference compound]
MMP-13 protein expression in heart (Western blot) [1]: Neither captopril nor Cand altered MMP-13 levels | macrophage infiltration/expression in heart (F4/80) [1]: reversed by all agents | expression of P-IκBα (marker for NFκB activation) in heart [1]: reversed only by β-Ile^5-Ang II | cardiac fibrosis (picrosirius red) [1]: did not significantly reduce fibrosis

Molecule: CC[C@H](C)[C@H](NC(=O)C[C@H](Cc1ccc(O)cc1)NC(=O)[C@@H](NC(=O)[C@@H](N)CCCNC(=N)N)C(C)C)C(=O)N[C@@H](Cc1c[nH]cn1)C(=O)N1CCC[C@H]1C(=O)N[C@@H](Cc1c[nH]c2ccccc12)C(=O)O [βTyr-Trp-8-Ang III, Arg-Val-β-Tyr-Ile-His-Pro-Trp]
binding at AT1R (displacement of 125I-Sar1-Ile8-AngII), in words (human AT1R): bind poorly | binding at AT2R (displacement of 125I-Sar1-Ile8-AngII), in words (human AT2R; transfected HEK-293 cells): high affinity

Molecule: Cc1cc(Cn2cnc3c2C[C@@H](C(=O)O)N(C(=O)C(c2ccccc2)c2ccccc2)C3)ccc1N(C)C [PD123319, reference compound]
effect of AT2R antagonist co-treatment on peptide anti-fibrotic effect (cardiac fibrosis, picrosirius red) [1, 4]: attenuated the anti-fibrotic effects of these peptides | effect of AT2R antagonist co-treatment on peptide inhibition of myofibroblast differentiation (α-SMA) [1, 4]: attenuated the inhibitory effects of these peptides

Molecule: β-Arg-Val-Tyr-Ile-His-Pro-Trp [βArg-Trp-8-Ang III]
Fold AT2R selectivity (human AT2R): 1854 fold

Molecule: Tetrazole-CONH-Arg-Val-Tyr-Ile-His-β-Pro-Trp [Tet-βPro-Trp-8-Ang III]
Fold AT2R selectivity (human AT2R): >275,000 fold

Molecule: Arg-Val-Tyr-Ile-His-β-Pro-Ala [βPro-Ala-8-Ang III]
Fold AT2R selectivity (human AT2R): 200 fold

B1: βTyr-Ang III (peptide)
peptide: RV[βTyr]IHPF-OH
notes: synthetic peptide; also called Arg-Val-β-Tyr-Ile-His-Pro-Phe
IC50 [3]: 1.82 nM

B3: βTyr-Trp-8-Ang III (peptide)
peptide: RV[βTyr]IHPW-OH
notes: synthetic peptide; also called β-Tyr^4-Trp^8-Ang III; β-Tyro-Trp^8-Ang III
IC50 [3]: 0.384 nM

B5: βArg-Ala-8-Ang II (peptide)
peptide: D[βArg]VYIHPA-OH
notes: synthetic peptide; also called Asp-β-Arg-Val-Tyr-Ile-His-Pro-Ala
IC50 [3]: 12.5 nM

B6: Cholic Acid-βPro-Ang III (peptide)
peptide: Cholyl-RVYIH[βPro]F-OH
notes: synthetic peptide; also called Cholate-Arg-Val-Tyr-Ile-His-β-Pro-Phe
IC50 [3]: 0.05 nM

B7: D-Arg-Ang III (peptide)
peptide: [dR]VYIHPF-OH
notes: synthetic peptide; also called D-Arg-Val-Tyr-Ile-His-Pro-Phe
IC50 [3]: 25 nM

B8: Nic-βPro-Ang III (peptide)
peptide: nicotinamido-RVYIH[βPro]F-OH
notes: synthetic peptide; also called Nicotinamido-Arg-Val-Tyr-Ile-His-β-Pro-Phe
IC50 [3]: 0.12 nM

Other lines, results leading:

Fold AT2R selectivity (human AT2R): >2500 fold
Molecule: Arg-Val-Tyr-β-Ile-His-Pro-Trp [βILe-Trp-8-Ang III]

Fold AT2R selectivity (human AT2R): >60,000 fold
Molecule: Tetrazole-CONH- Arg-Val-Tyr-Ile-His- β-Pro-Phe [Tet-βPro-Ang III]

IC50 (human AT1R; 125I-Sar1-Ile8-AngII): > 10000 nM | Fold AT2R selectivity (human AT2R): 400 fold
Molecule: CC[C@H](C)[C@H](NC(=O)[C@H](Cc1ccc(O)cc1)NC(=O)[C@@H](NC(=O)[C@H](N)CCCNC(=N)N)C(C)C)C(=O)N[C@@H](Cc1c[nH]cn1)C(=O)N1CCC[C@H]1C(=O)N[C@@H](Cc1ccccc1)C(=O)O [D-Arg-Ang III, D-Arg-Val-Tyr-Ile-His-Pro-Phe]

IC50 [3]: 0.34 nM
B2: NAc-βPro-Trp-8-Ang III (peptide)
peptide: Ac-RVYIH[βPro]W-OH
notes: synthetic peptide; also called N-Ac-β-Pro^7-Trp^8-Ang III; N-Ac-Pro^7-Trp^8-Ang III

IC50 [3]: 6.5 nM
B4: βArg-Ala-8-Ang III (peptide)
peptide: [βArg]VYIHPA-OH
notes: synthetic peptide; also called β-Arg-Val-Tyr-Ile-His-Pro-Ala

IC50 [3]: 8.1 nM
B9: βVal-Ala-8-Ang III (peptide)
peptide: R[βVal″]YIHPA-OH
notes: synthetic peptide; also called Arg-β-Val-Tyr-Ile-His-Pro-Ala

IC50 [3]: 20.3 nM
B10: βPhe-Ang III (peptide)
peptide: RVYIHP[βPhe]-OH
notes: synthetic peptide; also called Arg-Val-Tyr-Ile-His-Pro-β-Phe
